# From US11872262B2, “Means and methods for treating bacterial infections” (VIB VZW, priority 2017, dated 2024)
# Read-outs that look alike come from different tables or passages of the source. Residues, ends and D or L forms follow the SMILES beside them.
# Columns and labels:
# [1] = system: E. coli K-12 BW25113 strain (KEIO collection); assay type: cell-based, Escherichia coli
# Protocol: (§1) The MICs of active peptides were determined via the Broth microdilution assay according to the EUCAST guideline, which were performed in 96-well polystyrene flat-bottom microtiter plates (BD Biosciences). Briefly, a single colony was inoculated into 5 mL LB medium and grown to the end-exponential growth phase in a shaking incubator at 37° C. Cultures were subsequently diluted to an OD600 of 0.002 ([…]) in fresh LB medium. 100 μL of LB medium with different concentration of peptides ranging from 100 μg/mL to 1 μg/mL were serially diluted to the sterile 96-well plate (at least 3 wells in each plate). Afterward, 100 μL of the diluted bacteria were pipetted into 96-well plates containing different concentration of peptides. In each plate, the grown bacteria with maximum concentration of carrier and medium were considered as positive and negative controls, respectively. Thereafter, 96-well plates was statically incubated overnight at 37° C. to allow bacterial growth. A multipurpose UV/VIS plate reader at OD590 nm, 1 s shaking measured the absorbance of the growth bacteria using a Perkin Elmer spectrophotometer (1420 Multilabel Counter Victor 3).
# E. coli O157 = assay type: cell-based, Escherichia coli; conditions: E. coli 0157 (Table 2)
# Protocol: as §1
# E. coli O157:H7 = assay type: cell-based, Escherichia coli; conditions: screening-stage peptides tested at 1, 6, 12 and 25 μg/mL
# In short: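 Tandem-repeat aggregation-prone-region peptides from DMSO stocks were tested for growth inhibition of E. coli O157:H7 at 1, 6, 12 and 25 μg/mL.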
# E coli ATCC 25922 = assay type: cell-based, Escherichia coli
# Protocol: (§2) Gram negative bacterial strains were cultivated in Luria-Bertani (LB) broth (Difco) and gram positive bacteria strains were grown in a rich medium, brain heart infusion (BHI) broth (Difco, Sparks, MD) at 37° C. Whenever required, growth media were supplemented with appropriate antibiotic to the medium or plates. Escherichia coli DH5α was used for cloning and plasmid amplification. […] Bacterial CFU counting was done on blood agar plates (BD Biosciences). Species identification and antibiograms for all clinical isolates were performed using MALDI-TOF and VITEK® 2 automated system (bioMérieux).
# as §1, with “Afterward, 100 μL of the diluted bacteria were pipetted into 96-well plates containing different concentration of peptides. In each plate, the grown bacteria with maximum concentration of carrier and medium were considered as positive and negative controls, respectively. Thereafter, 96-well plates was statically incubated overnight at 37° C. to allow bacterial growth.” left out
# [2] = system: Staphylococcus aureus MRSA326; assay type: cell-based
# Protocol: as §2, §1
# [3] = system: Staphylococcus epidermidis 12228; assay type: cell-based
# Protocol: as §2, §1
# [4] = In vitro haemolytic activity test; assay type: cell-based; conditions: human erythrocytes; read-out: LC50, concentration at which the peptide induces 50% lysis of human erythrocytes
# Protocol: The hemolytic activities of peptides were determined by hemolysis against human erythrocytes. Pooled fresh blood was obtained and erythrocytes were collected by centrifugation 3000 rpm for 5 minutes (Anticoagulated by EDTAK) (Cristina et al. 2015). The pellet was washed three times with PBS and was diluted to a concentration of 8% in PBS. 100 μL of 8% Red blood cells solution was mixed with 100 μL of serial dilutions of peptides in PBS buffer in 96 well plates (BD Biosciences). The reaction mixtures were incubated for 1 h at 37° C. Thereupon, the plate was centrifuged for 10 minutes at 3000 rpm and 100 μL of supernatant was transferred to a sterilized 96-well plate (flat bottom). The release of hemoglobin was determined by measuring the absorbance of the supernatant at 405 nm. […] Erythrocytes in 1% Triton and Max used concentration of vehicle were used as control of 100% and 0% hemolysis, respectively.
# [5] = ELISA on immobilised colpeptin1 with serum of treated animals; assay type: in vivo; conditions: mice treated for 18 days with 30 mg/kg
# Protocol: FIG. 2: Cross seeding and in vivo activity. (A) Fluorescence microscopy image of HeLa cells mixed with E. coli O157 and treated with FITC-labelled Colpeptin1 (green channel). Blue channel is DAPI, red is CellMask Deep Red plasma membrane dye. (D) Inhibitor effect of Colpeptin1 on bacterial growth in the presence of human blood serum (average and s.d. of 3 replicates). (E) ELISA on immobilised colpeptin1 using blood serum of animals treated for 18 days with 30 mg/kg colpeptin1 (3 replicates from 3 mice). […] See materials and methods for details.
# Given these positive results, we then established the tolerance of the Swiss mice to the peptide by performing a dose escalation experiment. […] The parameters observed included body weight, food and water consumption, home cage activity and locomotion. […] Based on these observations, we tested the antibacterial efficacy of the colpeptin1 in a mouse bladder infection model. In this model, an inoculum of 50 μL of a 10^8 CFU/mL suspension of E. coli O157:H7 was delivered via the urethra to the bladder of healthy Swiss mice. 1 h post-infection, we administered a single injection of colpeptin1 at 10 mg/kg, either via the urethra (n=15) or intraperitoneally (n=15). 24 h after treatment, the animals were sacrificed and the bacterial titer in kidney, colon, bladder and ureter was determined by plating the macerated tissue (FIG. 2F-l).
structure (smiles),measurement,setting,value
CC(C)C[C@H](NC(=O)CNC(=O)[C@H](CCCNC(=N)N)NC(=O)[C@@H]1CCCN1C(=O)[C@H](CCCNC(=N)N)NC(=O)[C@H](CCCNC(=N)N)NC(=O)[C@@H](NC(=O)[C@H](CC(C)C)NC(=O)[C@H](C)NC(=O)[C@H](CC(C)C)NC(=O)CNC(=O)[C@H](CC(C)C)NC(=O)CNC(=O)[C@@H](N)CCCNC(=N)N)C(C)C)C(=O)NCC(=O)N[C@@H](CC(C)C)C(=O)N[C@@H](C)C(=O)N[C@@H](CC(C)C)C(=O)N[C@H](C(=O)N[C@@H](CCCNC(=N)N)C(=O)N[C@@H](CCCNC(=N)N)C(=O)O)C(C)C [Peptide P2] (H-RGLGLALVRRPRGLGLALVRR-OH),MIC,[1]; KEIO WT,12 µg/mL
same,MIC,[1]; Δ Clp A,12 µg/mL
same,MIC,[1]; Δ Clp B,12 µg/mL
same,MIC,[1]; Δ Clp P,12 µg/mL
same,MIC,[1]; Δ Clp S,12 µg/mL
same,MIC,[1]; Δ Clp X,12 µg/mL
same,MIC,[1]; Δ Dan J,12 µg/mL
same,MIC,[1]; Δ Dan K,6 µg/mL
same,MIC,[1]; Δ gro L,12 µg/mL
same,MIC,[1]; Δ htp G,12 µg/mL
same,MIC,E. coli O157,6 µg/mL
same,E. coli O157 (apparent MIC in screen),E. coli O157:H7,6 µg/mL
same,MIC,E coli ATCC 25922,12 µg/mL
same,MIC,[2],200 µg/mL
same,MIC,[3],50 µg/mL
same,HC50 at 1 h,[4],1100 µg/mL
same,antibody response towards the peptide (ELISA on serum),[5],no specific antibody response
